Laboratory results as given in patent US6531481B2 (priority 1998, dated 2003).
Counter-ions that a name gives are not always drawn. Each block holds one compound with its values, some of them ahead of it.

Experiments:
[1] = tested on: opioid receptors; experiment: Stimulation of [35S]GTPγS binding (agonist/antagonist activity); format: biochemical, guinea pig

melting point: 221 to 225.5 °C
Structure (SMILES): C=CCN1CC[C@H](N(c2ccccc2)c2ccc(C(=O)N(CC)CC)cc2)[C@H](C)C1 (racemic) (as salt: hydrochloride)

melting point: 177 to 178 °C
Structure (SMILES): C=CCN1CC[C@@H](N(c2ccccc2)c2ccc(C(=O)N(CC)CC)cc2)[C@H](C)C1 (racemic) (as salt: hydrochloride)

Structure (SMILES): CN1CCC2(c3cccc(O)c3)Cc3ccccc3CC2(C)C1 (racemic) [Compound 7, (±)-1,2,3,4,4a,5,10,10a-octahydro-4a-(3-hydroxyphenyl)-2,10a-dimethylbenzo-[g]isoquinoline]
stimulation of [35S]GTPγS binding (agonist activity) ([1]; concentrations as high as 1 μM): neither the N-methyl derivative 7 nor the N-phenethyl derivative 8 stimulated

Structure (SMILES): CC1C2CCCC1(c1cccc(O)c1)CCN2CCc1ccccc1 (stereo not drawn) [Compound 5c, 5-(3-Hydroxyphenyl)-9β-methyl-2-(2′-phenylethyl)-2-azabicyclo[3.3.1]nonane]
agonist/antagonist character ([1]; [35S]GTPγS functional assay): pure antagonists at the μ, δ, and κ opioid receptors
stimulation of GTP binding (agonist activity) ([1]; up to concentrations of 10 μM): neither 5b nor 5c stimulated GTP binding
